Results reported in patent US8461139B2 (Taro Pharmaceuticals North America, Inc., priority 2005, dated 2013).

Assay: pH screen stability of prednisolone acetate oral suspension (HPLC)
Assay type: physicochemical
Conditions: pH range of 5.0 to 6.2
Description: NaOH was added to the portions to give various pH values (Batch A-E) and packaged in 4 ounce amber PETG bottles. The samples were left at the environmentally stressed conditions of 40° centigrade or 50° centigrade for one month. HPLC methods were used to measure the percent of prednisolone acetate retained in the bottle.

Stability as a function of pH: more stable at the lower pH values
SMILES: CC(=O)OCC(=O)[C@@]1(O)CC[C@H]2[C@@H]3CCC4=CC(=O)C=C[C@]4(C)[C@H]3[C@@H](O)C[C@@]21C [Prednisolone acetate, prednisolone acetate]
